Activity calls are given as the source filed them. The rule behind the calls is not given here.
Columns and labels:
[1] = test system: Mus musculus; experiment: In vivo inhibition of GOAT in high fat, high carb (HFHC) diet-induced obesity model of C57BL/6 mouse assessed as increase in des-acyl ghrelin level at 3 mg/kg; assay type: functional, organism-based
[2] = In vivo inhibition of GOAT in high fat, high carb (HFHC) diet-induced obesity model of C57BL/6 mouse assessed as reduction in acyl ghrelin level at 3 mg/kg; assay type: functional; set-up: scale not given: the % may be the effect or the level left
[3] = test system: Rattus norvegicus; experiment: In vivo inhibition of GOAT in fasting rat assessed as reduction in acyl ghrelin level at 10 mg/kg; assay type: functional, organism-based
[4] = test system: Rattus norvegicus; experiment: In vivo inhibition of GOAT in fasting rat assessed as increase in des-acyl ghrelin level at 10 mg/kg; assay type: functional, organism-based
[5] = test system: Mus musculus; experiment: In vivo inhibition of GOAT in high fat, high carb (HFHC) diet-induced obesity model of C57BL/6 mouse assessed as increase in des-acyl ghrelin level at 10 mg/kg; assay type: functional, organism-based
[6] = test system: Mus musculus; experiment: In vivo inhibition of GOAT in fasting mouse assessed as reduction in acyl ghrelin level at 1 to 10 mg/kg, po administered twice a day for 2 days; assay type: functional, organism-based; details: dose 1-10 mg/kg, time 2.0 day

SMILES	Activity [1]	Activity [2]	Activity [3]	Activity [4]	Activity [5]	Activity [6]
Cc1c(C(=O)NN2CCCCC2)nn(-c2ccc(Cl)cc2Cl)c1-c1ccc(Cl)cc1 [RIMONABANT]	Active	61%				
O=C(O)Cc1csc2cc(O[C@H]3CCc4ncccc43)cc(Cl)c12			Active	Active	Active	Active
